# According to patent US6706767B2, “Therapeutics for chemokine mediated diseases” (Chemokine Therapeutics Corporation, priority 2000, dated 2004):
# Read-outs that look alike come from different tables or passages of the source.
# How the values were obtained:
# neutrophils [1] = test: fMLP induced neutrophil activation (chemiluminescence); format: cell-based; conditions: 0.3 μg/ml and 1 μg/ml
# Description: (§1) In accordance with this aspect of the invention, tricyclic comounds such as phenanthrene-9,10-dione or corresponding salts may be used for the treatment of inflammatory diseases related to gout and arthritis.
# neutrophils [2] = test: fMLP induced neutrophil calcium level; format: cell-based; conditions: FIG. 6, after 15 seconds stimulation
# EAE mouse model = EAE mouse model of Multiple Sclerosis, clinical scores; format: in vivo; conditions: 1 mg/kg/day for 14 days, compared to control saline injection
# Description: Experimental autoimmune encephalomyelitis (EAE) is a CD4^+ Th1-mediated inflammatory demyelinating disease of the central nervous system (CNS) that serves as a model for multiple sclerosis. It has previously been disclosed that monocyte chemotactic protein-one (MCP-1) regulates acute and relapsing autoimmune encephalomyelitis, and that MCP-1 production in the central nervous system is correlated with relapsing EAE development. In this example, the EAE mouse model for MS is used, in which the disease is induced with Bordetella pertussis toxin (Claude C. A. et. al., (1975) Journal of Immunology 114(5): 1537-1540 and Hosseimi, H. et. al., (2000) Neurology 54 (7): A166, An abstract presented in April 2000 on “Inhibition of proteosome prevents clinical signs in an experimental model of Multiple Sclerosis”). A dose of 1 mg/kg/day in a volume of 100 μl saline was given to animals for 14 days, and individual animals were observed daily and graded accordingly to their clinical severity as follows: grade 0, no abnormality; grade 1, limp tail; grade 2, limp tail and partial hind limb weakness; grade 3, complete hind limb paralysis; grade 4, complete hind limb paralysis and fore limb weakness; grade 5, death.
# THP-1 cells and T-cells = test: Cytoplasmic calcium rise induced by the compound itself; format: cell-based; conditions: analogous to native MCP-1
# Description: (§2) Fura-2,AM loaded THP-1 cells were incubated with M163 for 30 min prior to induction of [Ca^2+]i mobilization by 20 nM MCP-1. Cells were also evaluated in the presence of fMLP (1 mM)/cytochalasin B (0.5 mM) or M163 (600 ng/ml) as positive and negative controls respectively. […] The values represent the mean +/− one S.D.
# neutrophils [3] = test: CPPD crystal induced neutrophil activation (chemiluminescence); format: cell-based; conditions: 0.3 μg/ml and 1 μg/ml
# Description: as §1
# human neutrophils = test: Inhibition of IL-8 induced [Ca2+]i mobilization in human neutrophils; format: cell-based; conditions: 30 minutes incubation, 10 nM IL-8
# Description: Freshly isolated neutrophils loaded with Fura-2,AM were incubated with phenanthrene-9,10-dione for 30 minutes prior to induction of [Ca^2+]i mobilization by 10 nM IL-8. Values represent the increase in mobilization over basal levels (wavelength averaging at approximately 176 nM) and are the mean +/− one S.D. of n=3 experiments.
# THP-1 cells = test: Inhibition of MCP-1 induced [Ca2+]i mobilization in Fura-2,AM loaded THP-1 cells; format: cell-based; conditions: Homo sapiens, 0.5 h, 30 min incubation
# Description: as §2
# CXCR2 = molecular target: T1, CXCR2 (Homo sapiens, UniProt P25025); test: Inhibition of IL-8 binding to CXCR2; conditions: FIG. 8
# T1 sequence (P25025 1-360): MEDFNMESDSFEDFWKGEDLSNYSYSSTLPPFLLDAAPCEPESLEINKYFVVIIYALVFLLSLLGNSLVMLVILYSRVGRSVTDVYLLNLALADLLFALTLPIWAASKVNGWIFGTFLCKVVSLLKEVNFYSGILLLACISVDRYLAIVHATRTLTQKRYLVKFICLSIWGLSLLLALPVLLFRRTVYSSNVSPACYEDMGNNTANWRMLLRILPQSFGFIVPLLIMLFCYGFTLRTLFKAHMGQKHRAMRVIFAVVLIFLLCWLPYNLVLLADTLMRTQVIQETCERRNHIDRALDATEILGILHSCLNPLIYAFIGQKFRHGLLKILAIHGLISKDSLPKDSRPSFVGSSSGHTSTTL
# CXCR1 = molecular target: T2, CXCR1 (Homo sapiens, UniProt P25024); test: Inhibition of IL-8 binding to CXCR1; conditions: FIG. 8
# T2 sequence (P25024 1-350): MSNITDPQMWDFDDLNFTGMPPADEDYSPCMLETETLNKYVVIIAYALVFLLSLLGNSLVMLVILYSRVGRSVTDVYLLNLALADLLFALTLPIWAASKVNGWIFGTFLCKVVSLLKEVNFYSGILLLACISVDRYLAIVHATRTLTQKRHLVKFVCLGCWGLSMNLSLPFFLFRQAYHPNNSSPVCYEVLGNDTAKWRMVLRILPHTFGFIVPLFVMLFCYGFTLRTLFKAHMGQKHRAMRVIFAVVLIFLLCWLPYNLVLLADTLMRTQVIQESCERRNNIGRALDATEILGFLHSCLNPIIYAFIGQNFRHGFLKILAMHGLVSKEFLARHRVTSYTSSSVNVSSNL
# MCP-1 receptor (CCR-2) = MCP-1 receptor (CCR-2) (Homo sapiens, UniProt P41597); test: Inhibition of I125-labeled MCP-1 binding to the MCP-1 receptor (CCR-2); conditions: I125 labeled MCP-1 as competitor; FIG. 1
# Description: A dose response of phenanthrene-9,10-dione at different concentration in comparison to MCP-1.
# This example discloses the ability of tricyclic compounds of the invention, such as phenanthrene-9,10-dione (compound 1), for inhibiting binding to the MCP-1 receptor (CCR-2). The binding studies were conducted using I^125 labeled MCP-1 as competitor. […] In FIG. 1, the results of competition studies are plotted using a standard scatchard plot analysis.
# Sequence of MCP-1 receptor (CCR-2) (P41597 whole entry, species assumed): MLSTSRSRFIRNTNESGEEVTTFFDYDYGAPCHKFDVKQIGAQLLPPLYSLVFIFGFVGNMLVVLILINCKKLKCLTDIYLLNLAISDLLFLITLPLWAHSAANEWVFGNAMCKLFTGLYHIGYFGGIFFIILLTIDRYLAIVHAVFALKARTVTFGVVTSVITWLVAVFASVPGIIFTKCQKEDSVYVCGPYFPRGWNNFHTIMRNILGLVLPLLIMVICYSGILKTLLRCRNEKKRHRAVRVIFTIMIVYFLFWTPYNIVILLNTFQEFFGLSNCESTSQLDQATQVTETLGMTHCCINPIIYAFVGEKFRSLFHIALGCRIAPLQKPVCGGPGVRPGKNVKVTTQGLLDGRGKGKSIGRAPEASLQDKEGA
compound,measurement,setting,value
"O=C1C(=O)c2ccccc2-c2ccccc21 [phenanthrene-9,10-dione]",inhibition of fMLP induced neutrophil activation,neutrophils [1],strong inhibition
same,inhibition of intracellular calcium ion release,neutrophils [2],effective inhibitor of intracellular calcium ion release
same,effect on clinical scores,EAE mouse model,beneficial effect on the clinical scores
same,effect on cytoplasmic calcium concentration,THP-1 cells and T-cells,"induced a rapid, transient rise in cytoplasmic calcium concentration"
same,inhibition of CPPD crystal induced neutrophil activation,neutrophils [3],strong inhibition
same,suppression of calcium level (IL-8 induced [Ca2+]i mobilization),human neutrophils; 3 μM,about 63%
same,IC50,"human neutrophils; Neutrophil, 0.5 h",3000 nM
same,IC50,"THP-1 cells; 20 nM MCP-1, read-out: IC50, MCP-1 associated induction of [Ca2+]i mobilization",0.25 µg/mL
same,IC50,"THP-1 cells; 20 nM MCP-1, value in parentheses, read-out: IC50, MCP-1 associated induction of [Ca2+]i mobilization",120 nM
same,inhibitory effect on the binding of IL-8 to CXCR2,CXCR2,inhibitory effect
same,inhibitory effect on the binding of IL-8 to CXCR1,CXCR1,inhibitory effect
same,inhibitory effect on the binding of MCP-1 to CCR-2,MCP-1 receptor (CCR-2),inhibitory effect
